From article PMC8886331, “Lewis fucose is a key moiety for the recognition of histo‐blood group antigens by GI.9 norovirus, as revealed by structural analysis” (FEBS Open Bio, 2022)

What was measured:
[1] = biological target: T1, GI.9 Vancouver P domain (P dimer) of VP1 (Norovirus Hu/GI/Vancouver730/2004/CAN, UniProt F2XMU3); experiment: X-ray crystal structure (soak), […] A; assay type: binding; settings: crystal in 0.1 M bicine pH 9.0, 1.5-1.7 M MgCl2; soaked with 100 mM ligand overnight at 25 °C; HBGA site at P dimer interface
T1 construct: P (protruding) domain, residues 229-540 of VP1; N11-SUMO fusion from E. coli cell-free system or E. coli KRX, tag cleaved with SUMO protease; homodimer, site formed by both protomers (P-loop from the other protomer)

[2] = biological target: T1, GI.9 Vancouver P domain (P dimer) of VP1; experiment: X-ray crystal structure (soak), […] A; assay type: binding; settings: crystal in 0.1 M bicine pH 9.0, 1.5-1.7 M MgCl2; soaked with 100 mM ligand overnight at 25 °C; HBGA site at P dimer interface; remark: listed apart in the source
[3] = biological target: P domain of the VP1 capsid protein of the GI.9 norovirus Vancouver 730 strain (norovirus GI.9, Vancouver 730 strain); experiment: SEC; size-exclusion chromatogram of the synthesized P domain proteins; data not shown

## CC(=O)N[C@H]1C(O)O[C@H](CO)[C@@H](O[C@@H]2O[C@@H](C)[C@@H](O)[C@@H](O)[C@@H]2O)[C@@H]1O[C@@H]1O[C@H](CO)[C@H](O)[C@H](O)[C@H]1O[C@@H]1O[C@@H](C)[C@@H](O)[C@@H](O)[C@@H]1O (stereo partly drawn) [Lewis b tetrasaccharide]
[1]
  X-ray crystal structure (soak), 2.40 A: crystal structures of the P domains complexed with each of Lewis b tetrasaccharide and Lewis x

## CC(=O)N[C@H]1C(O)O[C@H](CO)[C@@H](O[C@@H]2O[C@H](CO)[C@H](O)[C@H](O)[C@H]2O)[C@@H]1O[C@@H]1O[C@@H](C)[C@@H](O)[C@@H](O)[C@@H]1O (stereo partly drawn) [Lewis x trisaccharide]
[2]
  X-ray crystal structure (soak), 2.26 A: P domains complexed with each of Lewis b tetrasaccharide and Lewis x trisaccharide

## P domain of the VP1 capsid protein of the GI.9 norovirus Vancouver 730 strain (domain or fragment)
[3]
  stoichiometry N: 2
